Source: PMC9431032, “Boosting Cosmeceutical Peptides: Coupling Imidazolium-Based Ionic Liquids to Pentapeptide-4 Originates New Leads with Antimicrobial and Collagenesis-Inducing Activities” (Microbiology Spectrum, 2022)
Where “and” joins values, the source holds several entries; their conditions need not be identical. Equal entries are not always repeated. Where two headings read alike, the source gives them in different places. Peptide text beside a SMILES is read from it. * marks the point of attachment. X1 = CCCCCCCCCCCCCCCCn1cc[n+](Cc2cn(CC(=O)*)nn2)c1

How the values were obtained:
[1] = test system: K. pneumoniae (KP010) MDR clinical isolate; details: n = 3
[2] = test system: E. coli ATCC 25922; assay: microbe, parasite or virus in culture; details: E. coli ATCC 25922; broth microdilution in cation-adjusted MHB2, CLSI; n = 3
Protocol: (§1) The antimicrobial activity of the IL-KTTKS conjugates was assessed in vitro against reference bacterial strains (American Type Culture Collection, ATCC). The minimal inhibitory concentration (MIC) was determined according to the Clinical and Laboratory Standards Institute (CLSI) guidelines ([28]) against Gram-positive (S. aureus, Enterococcus faecalis) and Gram-negative (Escherichia coli, Pseudomonas aeruginosa) bacteria.
(§2) (i) Antibacterial activity in standard conditions. The test conjugates and reference compounds were evaluated for their activity against three reference strains of Gram-negative bacteria, namely, E. coli (ATCC 25922), Pseudomonas aeruginosa (ATCC 27853), and Klebsiella pneumoniae (ATCC 13883), and the four following reference strains of Gram-positive bacteria, Staphylococcus aureus (ATCC 29213), S. Epidermidis (ATCC 14990), E. faecalis (ATCC 29212), and Streptococcus pyogenes (ATCC 19615). […] MBC values were also determined as previously reported ([52]).

[3] = test system: S. aureus ATCC 29213; assay: microbe, parasite or virus in culture; details: S. aureus ATCC 29213; broth microdilution in cation-adjusted MHB2, CLSI; n = 3
Protocol: as §1, §2

[4] = test system: K. pneumonia ATCC 138830; assay: microbe, parasite or virus in culture; details: K. pneumonia ATCC 138830; broth microdilution in cation-adjusted MHB2, CLSI; n = 3
Protocol: as §1, §2

[5] = test system: E. faecalis ATCC 29212; assay: microbe, parasite or virus in culture; details: E. faecalis ATCC 29212; broth microdilution in cation-adjusted MHB2, CLSI; n = 3
Protocol: as §1, §2

[6] = test system: P. aeruginosa ATCC 27853; assay: microbe, parasite or virus in culture; details: P. aeruginosa ATCC 27853; broth microdilution in cation-adjusted MHB2, CLSI; n = 3
Protocol: as §1, §2

[7] = test system: S. epidermidis ATCC 14990; details: broth microdilution in cation-adjusted MHB2, CLSI, n = 3
Protocol: as §1, §2

[8] = test system: C. glabrata ATCC 90030; assay: microbe, parasite or virus in culture; details: C. glabrata ATCC 90030, RPMI 1640 with 2% glucose, EUCAST, n = 2
Protocol: (§3) The MIC values were determined according to the European Committee on Antimicrobial Susceptibility Testing (EUCAST) protocol ([36]) and are shown on Table 4.
(§4) (iii) Antifungal activity.

[9] = test system: C. albicans ATCC 90028; assay: microbe, parasite or virus in culture; details: C. albicans ATCC 90028, RPMI 1640 with 2% glucose, EUCAST, n = 2
Protocol: as §3, §4

[10] = test system: C. parapsilosis ATCC 22019; assay: microbe, parasite or virus in culture; details: C. parapsilosis ATCC 22019, RPMI 1640 with 2% glucose, EUCAST, n = 2
Protocol: as §3, §4

[11] = test system: S. aureus (ATCC 29213); details: for MBC: ATCC 29213, 24 h; for MIC: 10^5 CFU/mL, 18 h at 37°C, three independent experiments in triplicates
Protocol: The antibacterial activity of C16Im-KTTKS and KTTK(C16Im)S was also assessed in simulated wound fluid (SWF) ([35]) against S. aureus (ATCC 29213), to check if it was preserved in this medium.
(ii) Antibacterial activity in simulated wound fluid. […] In parallel, SWF was prepared to a final composition of 50% fetal bovine serum (FBS; Sigma-Aldrich) and 50% peptone water (0.9% NaCl in 0.1% aqueous peptone; Sigma-Aldrich) ([35]). […] MIC values were determined in triplicates and are a result of three independent experiments.

[12] = test system: HFF-1 cells (human foreskin fibroblasts); format: cell-based; details: 24 h
Protocol: (§5) The cytotoxicity of KTTK(C16Im)S and C16Im-KTTKS conjugates was assessed on human foreskin fibroblasts (HFF-1) and human immortalized keratinocytes (HaCaT). […] In turn, the parent IL [C16 M1Im][Br] and its […] equimolar mixture with PP4, KTTKS:[C16 M1Im][Br]
(§6) (iv) Toxicity to human cells. HaCat and HFF-1 were seeded at 4 × 10^4cell/mL in 96-well plate using in Dulbecco’s Modified Eagle Medium (DMEM; CLS) supplemented with 2% FBS (Biowest) and 1% of antibiotic/antimycotic solution (100 units/mL of penicillin, 10 mg/mL of streptomycin, and 0.25 mg/mL of amphotericin B, Sigma-Aldrich). The plate was incubated at 37°C in a 5% CO2 atmosphere, and the cells allowed to grow until confluence was reached. Then, solutions of the test compounds in DMEM supplemented with 2% FBS, in a concentration range between 6.3 and 100 μM, were added to the wells. After 24 h of incubation at 37°C in a 5% CO2 atmosphere, the cell viability was assessed through the resazurin reduction assay. Briefly, the medium was removed and then 20 μL of the alamarBlue Cell Viability Reagent (Resazurin sodium salt, Sigma-Aldrich) at 0.15 mg/mL in 100 μL of Hank’s Balanced Salt Solution (HBSS; Sigma-Aldrich) were added to each well; the plate was next incubated for 2 h at 37°C in a 5% CO2 atmosphere, after which fluorescence was read at 560/590 nm on a Flex Station 3 multi-mode microplate reader (Molecular Devices) ([53]). The IC50 values were thus determined using the GraphPad Prism 9.0 software, by applying the equation log(inhibitor) versus response with variable slope (four parameters).

[13] = test system: HaCaT cells (human immortalized keratinocytes); assay: cells; format: cell-based; details: 24 h
Protocol: as §5, §6

[14] = test system: P. aeruginosa (PA004) MDR clinical isolate; details: n = 3
[15] = test system: human dermal fibroblasts (HDF); assay: Collagen production, Sircol kit assay; format: cell-based; details: 5 μM, 48 h, three independent experiments in triplicates, values only in Fig. 3
Protocol: The point of conjugating antimicrobial ILs to a collagenesis-inducing peptide was to afford a simple construct able to exert a dual antimicrobial and skin rebuilding action. Therefore, the two best IL-KTTKS conjugates were further tested for their ability to promote collagen production by human dermal fibroblasts (HDF) in vitro. This was assessed using the Sircol kit assay, whereby the amount of newly formed collagen in the ECM that is deposited in the microwell-plated cell cultures is solubilized in an acidic medium and next quantified through a collagen standard curve according to the Sircol kit assay procedure ([38]). […]
(v) Collagen production in human dermal fibroblasts. The amount of collagen produced by HDF was determined using the SIRCOL Kit Assay (Biocolor) according to the manufacturers’ instructions ([38]). […] Medium was then removed, and quantitation of the newly formed collagen proceeded as follows: collagen was solubilized in cold 0.5 M aqueous acetic acid (Fisher Chemical) and concentrated overnight with deposition of a transparent pellet; after centrifugation, the supernatant was discarded and the pellet was labeled with the SIRCOL dye reagent; after removing the unbound dye with the acid-salt wash reagent, the collagen-bound dye was dissolved with the alkali reagent and absorbance was measured at 555 nm on Flex Station 3 multimode microplate reader. […]

[16] = test system: S. aureus (SA007) MDR clinical isolate; details: for MIC: n = 3
[17] = in SWF (50% FBS, 50% peptone water)

Compound | MIC [1] | MIC [2] | MIC [3] | MIC [4] | MIC [5] | MIC [6] | MIC [7] | MBC [11] | MIC ([11]; in MHB) [µg/mL] | MIC [11, 17] [µg/mL] | IC50 [12] [µM] | IC50 [13] [µM] | MIC [14] | Collagen synthesis by HDF compared to the negative control [15] | MIC [16] | also measured
CCCCCCCCCCCCCCCCn1cc[n+](Cc2cn(CCCC[C@H](NC(=O)[C@@H](NC(=O)[C@@H](NC(=O)[C@@H](N)CCCCN)[C@@H](C)O)[C@@H](C)O)C(=O)N[C@@H](CO)C(N)=O)nn2)c1 [KTTK(C16Im)S] | 21.7 μM and 20.0 μg/mL | 7.0 μM and 6.45 μg/mL | 14.0 μM and 12.9 μg/mL | 53.8 μM and 49.5 μg/mL | 32.5 μM and 29.9 μg/mL | 32.5 μM and 29.9 μg/mL | 5.4 μM and 5.0 μg/mL | 32 [64 to 128] μg/mL | 32 | 64 to 128 | 12.7 ± 1.06 | 23.1 ± 1.1 | 21.7 μM and 20.0 μg/mL | produce more collagen | 21.7 μM and 20.0 μg/mL | MIC ([8]; listed as KTTK(C16m)S): 5.4 μM and 5.0 μg/mL; MIC ([9]; listed as KTTK(C16m)S): 5.4 μM and 5.0 μg/mL; MIC ([10]; listed as KTTK(C16m)S): 2.7 μM and 2.5 μg/mL
CCCCCCCCCCCCCCCCn1cc[n+](Cc2cn(CC(=O)N[C@@H](CCCCN)C(=O)N[C@H](C(=O)N[C@H](C(=O)N[C@@H](CCCCN)C(=O)N[C@@H](CO)C(N)=O)[C@@H](C)O)[C@@H](C)O)nn2)c1 [Peptide C16Im-KTTKS] (X1-KTTKS-NH2) | 37.9 μM and 37.0 μg/mL | 14.3 μM and 14.0 μg/mL | 14.3 μM and 14.0 μg/mL | 27.4 μM and 26.8 μg/mL | 28.7 μM and 28.0 μg/mL | 28.7 μM and 28.0 μg/mL | 9.5 μM and 9.3 μg/mL | 32 to 64 µg/mL | 16 to 32 | 16 to 32 | 22.5 ± 1.08 | 36.6 ± 1.09 | 18.5 µg/mL | produce more collagen | 18.5 µg/mL | MIC [8]: 4.7 μM and 4.6 μg/mL; MIC [9]: 4.7 μM and 4.6 μg/mL; MIC [10]: 2.4 μM and 2.3 μg/mL; MIC relative to that of ciprofloxacin [16]: ~10 fold
